Assay results reported in patent publication US20090181972A1, “Novel Inhibitors of Cysteine Proteases, the Pharmaceutical Compositions Thereof and their Therapeutic Applications” (priority 2005, published 2009).

Assays:
[1] = molecular target: Cathepsin B (Homo sapiens, UniProt P07858); assay: Cathepsin B activity assay; format: biochemical; conditions: 36 μM z-RR-AMC, 3.6 nM enzyme; pre-incubated 30 minutes at 25° C., 60 minutes at 37° C.; sigmoidal fit
Protocol: Cathepsin B was diluted in Cathepsin B buffer (20 mM Tris HCl pH 6.8; 1 mM EDTA; 1 mM DTT). Compounds stocks (100 mM) were stored at −20° C. in DMSO. Compounds were tested at the following final concentrations: 100 μM; 33.3 μM; 11.1 μM; 3.7 μM; 1.23 μM; 412 nM; 137 nM; 45.7 nM; 15.2 nM; 5 nM. Reactions were performed as duplicates in Black LJL 96 well plates (HE microplates; Molecular Devices; 20 μl final reaction volume). The substrate concentration for cathepsin B specificity assay was 36 μM (z-RR-AMC; Calbiochem). The concentration of the enzyme (Cathepsin B) in specificity assays was 3.6 nM. The concentrations were determined in order to perform specificity assays under initial velocities at fixed substrate concentration. Compounds were pre-incubated with enzymes for 30 minutes at 25° C. Reactions were initiated by addition of substrate to the plates containing the enzymes (+/− compounds) diluted in assay buffer. Reactions were incubated for 60 minutes at 37° C. Reactions were stopped by adding acetic acid (100 mM final). Readings were performed on a Pherastar Fluorescent Reader (BMG). δ Emission 380 nm; δ Excitation=460 nm. Data (mean values +/− standard deviation) were analyzed as % of control (no compound) and plotted as percentage versus the Log of the compound concentration using GraphPad (Prism). Data were fitted to a sigmoidal model (variable slope).

[2] = tested on: PC-3 prostate cancer cells; assay: PC3 cell viability and proliferation assay (MTS); format: cell-based; conditions: 72 hours incubation, mean of three independent experiments, read-out: PC3 GI50 D3
Summary of the method: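 PC-3 cells, seeded 24 h earlier, were treated in triplicate at 5 nM–10 μM with 0.5% final DMSO for 72 hours. Viability was read by 2-hour MTS conversion and absorbance at 492 nm. GI50 came from a sigmoidal variable-slope fit, averaged over three independent experiments.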

Compound | IC50 [1] | GI50 [2]
CC(C)c1nnc2nc3c(nn12)C(=O)c1ccccc1-3 [Example 1l/A, 1-lsopropyl-2,3,4,10,10a-pentaaza-cyclopenta[b]fluoren-9-one] | 9.2 µM | 
6-(7)-Chloro-1-methyl-2,3,4,10,10a-pentaaza-cyclopenta[b]fluoren-9-one [Example 3/A] | 17.4 µM | 0.994 µM
